The values that follow come from ChEMBL document CHEMBL4477217, “Discovery of 3-(3-(4-(1-Aminocyclobutyl)phenyl)-5-phenyl-3H-imidazo[4,5-b]pyridin-2-yl)pyridin-2-amine (ARQ 092): An Orally Bioavailable, Selective, and Potent Allosteric AKT Inhibitor” (J Med Chem, 2016).

Where only a bound is given, the exact number is not on record here.

The nature of series [1]: Solubility of the compound. Type of series: physicochemical.
A short description of series [2]: in vitro. Conditions: human, liver microsomes. A general note: Liver microsomes are vesicles of endoplasmic reticulum, rich in cytochrome P450 enzymes.
Series [3] can be described thus: in vitro. Particulars: female, CD-1, mouse, liver microsomes.
Series [4] is described as follows: in vitro. Conditions: male, CD-1, mouse, liver microsomes.
Series [5] can be described thus: in vitro. Conditions: female, Beagle, dog, liver microsomes.
A short description of series [6]: in vitro. Conditions: male, Beagle, dog, liver microsomes.
Series [7] has as its target RAC-gamma serine/threonine-protein kinase (Homo sapiens, UniProt Q9Y243). More on the design: species or system Sf9.
Series [8] can be described thus: Oral bioavailability in mouse at 100 mg/kg. Conditions: in vivo. In kind it is ADME, organism-based.
The test system of series [9] is Mus musculus. In words: In vivo inhibition of AKT1 phosphorylation at Ser473 in human AN3CA cells xenografted in NCr-M nude mouse at 100 mg/kg, po after 1 hr by Western blot analysis. Type of series: functional. Particulars: AN3-CA. (Xenograft models place foreign cells or tissue in a host animal.)
Series [10] deals with Mus musculus. In words: In vivo inhibition of AKT1 phosphorylation at Ser473 in human AN3CA cells xenografted in NCr-M nude mouse at 100 mg/kg, po after 8 hrs by Western blot analysis. Type of series: functional. Conditions: AN3-CA.
The subject of series [11] is Mus musculus. In words: In vivo inhibition of AKT1 phosphorylation at Ser473 in human AN3CA cells xenografted in NCr-M nude mouse at 200 mg/kg, po after 1 hr by Western blot analysis. Type of series: functional. Particulars: AN3-CA.
In series [12] the test system is Mus musculus. In words: In vivo inhibition of AKT1 phosphorylation at Ser473 in human AN3CA cells xenografted in NCr-M nude mouse at 200 mg/kg, po after 8 hrs by Western blot analysis. In kind it is functional. Particulars: AN3-CA.
The subject of series [13] is Mus musculus. In words: In vivo inhibition of AKT1 phosphorylation at Thr308 in human AN3CA cells xenografted in NCr-M nude mouse at 100 mg/kg, po after 1 hr by Western blot analysis. Conditions: AN3-CA. In kind it is functional.
The subject of series [14] is Mus musculus. In words: In vivo inhibition of AKT1 phosphorylation at Thr308 in human AN3CA cells xenografted in NCr-M nude mouse at 100 mg/kg, po after 8 hrs by Western blot analysis. In kind it is functional. Conditions: AN3-CA.
Series [15] relates to Mus musculus. In words: In vivo inhibition of AKT1 phosphorylation at Thr308 in human AN3CA cells xenografted in NCr-M nude mouse at 200 mg/kg, po after 1 hr by Western blot analysis. Type of series: functional. Conditions: AN3-CA.
For series [16], the system named is Mus musculus. In words: In vivo inhibition of AKT1 phosphorylation at Thr308 in human AN3CA cells xenografted in NCr-M nude mouse at 200 mg/kg, po after 8 hrs by Western blot analysis. Type of series: functional. Conditions: AN3-CA.
In series [17] the test system is Mus musculus. In words: In vivo inhibition of AKT1 phosphorylation in human AN3CA cells xenografted in NCr-M nude mouse assessed as inhibition of PRAS40 phosphorylation at Thr246 at 100 mg/kg, po after 1 hr by Western blot analysis. Type of series: functional. Particulars: AN3-CA.
Series [18] relates to Mus musculus. In words: In vivo inhibition of AKT1 phosphorylation in human AN3CA cells xenografted in NCr-M nude mouse assessed as inhibition of PRAS40 phosphorylation at Thr246 at 100 mg/kg, po after 8 hrs by Western blot analysis. In kind it is functional. Conditions: AN3-CA.
The test system of series [19] is Mus musculus. In words: In vivo inhibition of AKT1 phosphorylation in human AN3CA cells xenografted in NCr-M nude mouse assessed as inhibition of PRAS40 phosphorylation at Thr246 at 200 mg/kg, po after 1 hr by Western blot analysis. Type of series: functional. Conditions: AN3-CA.
Series [20] has as its system Mus musculus. In words: In vivo inhibition of AKT1 phosphorylation in human AN3CA cells xenografted in NCr-M nude mouse assessed as inhibition of PRAS40 phosphorylation at Thr246 at 200 mg/kg, po after 8 hrs by Western blot analysis. Type of series: functional. Particulars: AN3-CA.
Series [21] can be described thus: Drug uptake in NCr-M nude mouse plasma xenografted with human AN3CA cells at 100 mg/kg, po after 1 hr. In kind it is ADME, organism-based.
Series [22] in a line: Drug uptake in NCr-M nude mouse plasma xenografted with human AN3CA cells at 100 mg/kg, po after 8 hr. In kind it is ADME, organism-based.
Series [23] is described as follows: Drug uptake in NCr-M nude mouse plasma xenografted with human AN3CA cells at 200 mg/kg, po after 1 hr. In kind it is ADME, organism-based.
The nature of series [24]: Drug uptake in NCr-M nude mouse plasma xenografted with human AN3CA cells at 200 mg/kg, po after 8 hr. Type of series: ADME, organism-based.
The nature of series [25]: Drug uptake in NCr-M nude mouse tumor xenografted with human AN3CA cells at 100 mg/kg, po after 1 hr. In kind it is ADME, organism-based, Neoplasm. Conditions: read-out: Drug uptake.
Series [26] is described as follows: Drug uptake in NCr-M nude mouse tumor xenografted with human AN3CA cells at 100 mg/kg, po after 8 hr. Type of series: ADME, organism-based, Neoplasm. Conditions: read-out: Drug uptake.
A short description of series [27]: Drug uptake in NCr-M nude mouse tumor xenografted with human AN3CA cells at 200 mg/kg, po after 1 hr. In kind it is ADME, organism-based, Neoplasm. Particulars: read-out: Drug uptake.
Series [28] is described as follows: Drug uptake in NCr-M nude mouse tumor xenografted with human AN3CA cells at 200 mg/kg, po after 8 hr. Particulars: read-out: Drug uptake. Type of series: ADME, organism-based, Neoplasm.
A short description of series [29]: Tmax in rat at 5 mg/kg administered as single dose. In kind it is ADME, organism-based. Conditions: in vivo.
Series [30] can be described thus: Half life in rat at 5 mg/kg administered as single dose. Type of series: ADME, organism-based. Particulars: in vivo.
Series [31] can be described thus: Cmax in rat at 5 mg/kg administered as single dose. Particulars: in vivo. More on the design: dose 5 mg/kg. In kind it is ADME, organism-based.
The nature of series [32]: AUC (infinity) in rat at 5 mg/kg administered as single dose. Particulars: in vivo. In kind it is ADME, organism-based. On the set-up: dose 5 mg/kg, time infinity.
A short description of series [33]: Oral bioavailability in rat at 5 mg/kg administered as single dose. In kind it is ADME, organism-based. Conditions: in vivo.
A short description of series [34]: Tmax in monkey at 10 mg/kg administered as single dose. Type of series: ADME, organism-based, Macaca mulatta. Particulars: rhesus monkey, in vivo.
Series [35] in a line: Half life in monkey at 10 mg/kg administered as single dose. In kind it is ADME, organism-based, Macaca mulatta. Conditions: rhesus monkey, in vivo.
The nature of series [36]: Cmax in monkey at 10 mg/kg administered as single dose po. Type of series: ADME, organism-based, Macaca mulatta. More on the design: dose 10 mg/kg, route oral. Conditions: rhesus monkey, in vivo.
A short description of series [37]: AUC (infinity) in monkey at 10 mg/kg administered as single dose. Type of series: ADME, organism-based, Macaca mulatta. On the set-up: dose 10 mg/kg, time infinity. Conditions: rhesus monkey, in vivo.
A short description of series [38]: Oral bioavailability in monkey at 10 mg/kg administered as single dose. Type of series: ADME, organism-based, Macaca mulatta. Particulars: rhesus monkey, in vivo.
The target of series [39] is RAC-beta serine/threonine-protein kinase (Homo sapiens, UniProt P31751). More on the design: species or system Sf9.
Sequence of RAC-beta serine/threonine-protein kinase (P31751 whole entry): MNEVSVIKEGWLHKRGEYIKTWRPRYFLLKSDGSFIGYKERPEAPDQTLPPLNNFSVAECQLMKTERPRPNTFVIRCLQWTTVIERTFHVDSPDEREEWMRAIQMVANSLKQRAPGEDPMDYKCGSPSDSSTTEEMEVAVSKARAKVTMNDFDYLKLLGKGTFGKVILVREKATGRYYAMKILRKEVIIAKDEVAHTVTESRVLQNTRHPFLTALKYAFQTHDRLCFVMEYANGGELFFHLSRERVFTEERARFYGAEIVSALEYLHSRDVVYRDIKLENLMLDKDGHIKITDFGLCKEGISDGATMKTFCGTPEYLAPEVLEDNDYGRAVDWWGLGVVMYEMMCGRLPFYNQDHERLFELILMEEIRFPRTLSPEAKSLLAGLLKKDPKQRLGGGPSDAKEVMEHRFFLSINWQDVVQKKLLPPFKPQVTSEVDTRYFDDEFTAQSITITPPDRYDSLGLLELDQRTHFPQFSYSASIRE

Sequence of RAC-gamma serine/threonine-protein kinase (Q9Y243 whole entry): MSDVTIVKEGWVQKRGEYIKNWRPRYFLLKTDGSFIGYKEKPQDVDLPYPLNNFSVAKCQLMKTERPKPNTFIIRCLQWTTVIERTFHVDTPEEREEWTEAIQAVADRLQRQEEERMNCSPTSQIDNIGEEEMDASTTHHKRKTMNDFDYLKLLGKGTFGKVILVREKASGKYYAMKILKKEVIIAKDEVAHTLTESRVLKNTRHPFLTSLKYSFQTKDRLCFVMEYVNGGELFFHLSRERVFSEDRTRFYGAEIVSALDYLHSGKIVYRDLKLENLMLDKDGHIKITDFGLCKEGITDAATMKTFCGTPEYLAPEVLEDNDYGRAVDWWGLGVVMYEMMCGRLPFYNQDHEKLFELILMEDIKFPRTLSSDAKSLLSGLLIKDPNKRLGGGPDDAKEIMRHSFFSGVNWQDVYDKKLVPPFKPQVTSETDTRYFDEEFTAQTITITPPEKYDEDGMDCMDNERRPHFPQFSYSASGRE

For orientation: solubility means the concentration that dissolves in the medium under given conditions. The half-life is the time in which the quantity being followed falls by half. Turning to `Cl.Nc1cccc(-c2ccc3nc(-c4cccnc4N)n(-c4ccc(C5(N)CCC5)cc4)c3n2)c1`, in series [1], the solubility was 138 µM. The half-life at 1 µM in [2], in [3], in [4], in [5] and in series [6] was more than 60 min each time.

What is called IC50 is the concentration at which inhibition is half-maximal. Take `Cc1cnc2c(c1)nc(-c1cccnc1N)n2-c1ccc(CN)cc1`: the IC50 in series [7] was more than 10 µM.

In series [1], `CC(=O)Nc1cccc(-c2ccc3nc(-c4cccnc4N)n(-c4ccc(CN)cc4)c3n2)c1.Cl` came in with a solubility not below 200 µM. Also, the half-life at 1 µM in series [3] was 45 min; in series [4], more than 60 min; in series [5] it was more than 60 min; in [6], more than 60 min.

`Cl.Nc1ncccc1-c1nc2ccc(-c3cccnc3)nc2n1-c1ccc(C2(N)CCC2)cc1` gave a solubility in series [1] of 178 µM. Moreover, the half-life at 1 µM was more than 30 min in series [2]; 37 min in series [3]; 31 min in series [4]; 21 min in series [5]; more than 30 min in series [6].

For orientation: bioavailability means the share of a dose that reaches the circulation, judged against a reference dose that is usually intravenous. Broadly, the inhibition in vivo is the change of the read-out against control, counted positive when it falls. What is called Tmax is the time at which the peak concentration occurs. Usually Cmax stands for the maximum level reached in the sampled fluid or tissue. As a reminder, the AUC(0-inf) is the area under the concentration-time curve extrapolated to infinity. With `Cl.Nc1ncccc1-c1nc2ccc(-c3ccccc3)nc2n1-c1ccc(C2(N)CCC2)cc1`, the solubility in series [1] came out at 170 µM. Also, the bioavailability was found to be 23% in series [8], 62% in [33] and 49% in series [38]. Moreover, the inhibition in vivo at 100 mg/kg is 99.2% in series [9]; 98.6% in series [10]; 95% in [13]; 96.3% in series [14]; 57.7% in series [17]; 35.9% in series [18]. The inhibition in vivo at 200 mg/kg in [11] came to 99.2%; in series [12] it was 99.7%; in [15], 93.3%; in series [16], 90.8%; in series [19] it was 50.5%; in series [20], 42.5%. The concentration at 1 h is 2.1 µM in series [21], 2.7 µM in series [23], 21 µM in [25] and 35.8 µM in series [27]. Also, the concentration at 8 h stood at 0.26 µM in series [22], 1 µM in series [24], 9.6 µM in series [26] and 27.4 µM in series [28]. Moreover, the Tmax in series [29] stood at 480 min; in series [34], 258 min. For the same compound, the values for the half-life in series [30] and in series [35] were 1020 min and 420 min, respectively. In addition, the results for the Cmax in [31] and in series [36] were 198 ng/mL and 258 ng/mL, respectively. In addition, the figures for the AUC(0-inf) in [32] and in series [37] were 5500 ng·h/mL and 2960 ng·h/mL, respectively. Moreover, the half-life at 1 µM in series [2] was determined as 55 min; in [3], 18 min; in [4], 17 min; in [5] it was 28 min; in series [6] it was 31 min.

Turning to `Cc1ccc(-n2c(-c3cccnc3N)nc3cccnc32)cc1`, the IC50 in series [39] was 20 µM; in [7], more than 100 µM.

The compound `Cl.NCc1ccc(-n2c(-c3cccnc3N)nc3ccc(-c4ccccc4)nc32)cc1` came in with a solubility in series [1] of 188 µM. The half-life at 1 µM in [2] was 39 min.

On to `CC(C)(C)c1ccc(-n2c(-c3cccnc3N)nc3cccnc32)cc1`, for which the values for the 50% inhibitory concentration (IC50) in series [39] and in [7] were 16 µM and 71 µM, respectively.

On to `CC(=O)Nc1cccc(-c2ccc3nc(-c4cccnc4N)n(-c4ccc(C5(N)CCC5)cc4)c3n2)c1.Cl`, for which the concentration in solution in series [1] (solubility) came to 160 µM. The half-life at 1 µM is more than 60 min in series [2]; more than 60 min in series [3]; more than 60 min in [4]; 50 min in [5]; more than 60 min in [6].

With `NCc1ccc(-n2c(-c3cccnc3N)nc3cc(-c4cccnc4)cnc32)cc1`, the IC50 is 3.5 µM in series [39] and more than 10 µM in series [7].

As for `NCc1ccc(-n2c(-c3cccnc3N)nc3cccnc32)cc1`, the IC50 in [39] is 9.3 µM; in series [7], more than 100 µM.
